Consider eight compounds from patent US5693642A, “Piperazine derivatives as 5-HT1A ligands” (John Wyeth & Brother Ltd., priority 1993, dated 1997).

The experiment concerns the target T1, 5-HT1A receptor (Rattus norvegicus, UniProt P19327).
T1 construct: rat hippocampal membrane homogenate; from tissue; host or cells: rat hippocampal membrane homogenate
T1 sequence (P19327 1-422): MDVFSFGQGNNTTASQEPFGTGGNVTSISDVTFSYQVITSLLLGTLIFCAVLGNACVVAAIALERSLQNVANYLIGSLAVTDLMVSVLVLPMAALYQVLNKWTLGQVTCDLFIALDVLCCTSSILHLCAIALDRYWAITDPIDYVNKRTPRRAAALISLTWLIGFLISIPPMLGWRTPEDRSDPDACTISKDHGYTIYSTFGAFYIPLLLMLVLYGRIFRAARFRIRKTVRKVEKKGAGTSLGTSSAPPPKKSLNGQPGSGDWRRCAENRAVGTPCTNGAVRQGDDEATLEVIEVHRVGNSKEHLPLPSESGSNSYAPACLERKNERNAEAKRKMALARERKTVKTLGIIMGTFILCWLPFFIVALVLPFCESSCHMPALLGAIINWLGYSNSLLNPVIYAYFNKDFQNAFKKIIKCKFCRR
Briefly: 5-HT1A receptor binding activity in rat hippocampal membrane homogenate. The method, then: The compounds of the invention were tested for 5-HT1A receptor binding activity in rat hippocampal membrane homogenate by the method of B. S. Alexander and M. D. Wood, J Pharm Pharmacol, 1988, 40, 888-891.
`COc1ccccc1N1CCN(C[C@H](c2ccccn2)[C@@H](O)C2CCCCC2)CC1` (relative stereo) [Example 1b, R*, S*-1-(2-Methoxyphenyl)-4-[(2-propan-(2-pyridinyl)-3-cyclohexyl)-3-ol]piperazine]: the IC50 came to 4.3 nM.

On to `COc1ccccc1N1CCN(CCC(SC2CCCCC2)c2ccccn2)CC1` (centres unmarked) [Example 6, 1-(2-Methoxyphenyl)-4-[3-(cyclohexylthio)-3-(2-pyridinyl)propyl]piperazine], for which the half-inhibitory concentration (IC50) worked out at 4.25 nM. The compound `COc1ccccc1N1CCN(CCC(C(=O)C2CCCCC2)c2ccccn2)CC1` (centres unmarked) [Example 3] returned an IC50 of 2.6 nM. In turn, `COc1ccccc1N1CCN(CCC(c2ccccn2)[S+]([O-])C2CCCCC2)CC1` (single isomer, unassigned) [Example 7, 1-(2-Methoxyphenyl)-4-[3-(cyclohexylsulphoxy)-3-(2-pyridinyl)propyl]piperazine] came in with an IC50 of 15 nM. On to `COc1ccccc1N1CCN(CC[C@H](c2ccccn2)[C@@H](O)C2CCCCC2)CC1` (relative stereo) [Example 2b, R*,S*-1-(2-Methoxyphenyl)-4-[3-butan-(2-pyridinyl)-4-cyclohexyl)-4-ol]piperazine], for which the IC50 was determined as 1.8 nM. As to `COc1ccccc1N1CCN(CC[C@H](c2ccccn2)[C@H](O)C2CCCCC2)CC1` (relative stereo) [Example 2a, R*,R*-1-(2-Methoxyphenyl)-4-[3-butan-(2-pyridinyl)-4-cyclohexyl)-4-ol]piperazine], the half-inhibitory concentration (IC50) came to 2 nM. The value for `COc1ccccc1N1CCN(C[C@H](c2ccccn2)[C@H](O)C2CCCCC2)CC1` (relative stereo) [Example 1a, R*, R*-1-(2Methoxyphenyl)-4-[(2-propan-(2-pyridinyl)-3-cyclohexyl)-3-ol]piperazine] was 4 nM; that for `COc1ccccc1N1CCN(CCC(CC2CCCCC2)c2ccccn2)CC1` (centres unmarked) [Example 4] was 1.6 nM.

As usually defined, the IC50 is the concentration that inhibits the measured activity by half.
